Results from ChEMBL document CHEMBL3526084, “Cytochrome P450 dysregulations in thioacetamide-induced liver cirrhosis in rats and the counteracting effects of hepatoprotective agents” (Drug Metab Dispos, 2012).
Active and inactive are the calls of the source. The rule behind the calls is not given here.

Assays:
Rattus norvegicus [1] = assay: Hepatoprotective activity in thioacetamide-induced Sprague-Dawley rat liver cirrhosis model assessed as reversal of thioacetamide-induced change in serum AST level at 200 mg/kg administered intragastrically qd for 2 weeks by […]; format: functional, organism-based; set-up: dose 200 mg/kg
Rattus norvegicus [2] = assay: Hepatoprotective activity in thioacetamide-induced Sprague-Dawley rat liver cirrhosis model assessed as reversal of thioacetamide-induced change in serum TBIL level at 200 mg/kg administered intragastrically qd for 2 weeks by […]; format: functional, organism-based; set-up: dose 200 mg/kg
Rattus norvegicus [3] = assay: Hepatoprotective activity in thioacetamide-induced Sprague-Dawley rat liver cirrhosis model assessed as downregulation of CYP1A2 protein level at 200 mg/kg administered intragastrically qd for 2 weeks by Western blotting analysis relative to control; format: functional, organism-based; set-up: dose 200 mg/kg
Rattus norvegicus [4] = assay: Hepatoprotective activity in thioacetamide-induced Sprague-Dawley rat liver cirrhosis model assessed as downregulation of CYP2C6 protein level at 200 mg/kg administered intragastrically qd for 2 weeks by Western blotting analysis relative to control; format: functional, organism-based; set-up: dose 200 mg/kg
Rattus norvegicus [5] = assay: Hepatoprotective activity in thioacetamide-induced Sprague-Dawley rat liver cirrhosis model assessed as reversal of thioacetamide-induced change in serum ALT level at 200 mg/kg administered intragastrically qd for 2 weeks by […]; format: functional, organism-based; set-up: dose 200 mg/kg
Rattus norvegicus [6] = assay: Upregulation of CYP3A2 in Sprague-Dawley rat liver at 200 mg/kg administered intragastrically qd for 2 weeks by Western blotting analysis; format: ADME, organism-based; set-up: dose 200 mg/kg, route intragastric; settings: in vivo, po, 336 h
Rattus norvegicus [7] = assay: Upregulation of CYP2E1 in Sprague-Dawley rat liver at 200 mg/kg administered intragastrically qd for 2 weeks by Western blotting analysis; format: ADME, organism-based; set-up: dose 200 mg/kg, route intragastric; settings: in vivo, po, 336 h
Liver microsome [8] = assay: Reversal of thioacetamide-induced CYP2C6 inactivation in rat liver microsomes at 2 to 50 uM in presence of NADPH; format: functional
Liver microsome [9] = assay: Reversal of thioacetamide-induced CYP2C6 inactivation in rat liver microsomes at 0.2 to 5 mM in presence of NADPH; format: functional
Liver microsome [10] = assay: Reversal of thioacetamide-induced CYP1A2 inactivation in rat liver microsomes at 2 to 50 uM in presence of NADPH; format: functional
Liver microsome [11] = assay: Reversal of thioacetamide-induced CYP1A2 inactivation in rat liver microsomes at 0.2 to 5 mM in presence of NADPH; format: functional
Liver microsome [12] = assay: Reversal of thioacetamide-induced CYP3A2 inactivation in rat liver microsomes at 2 to 50 uM in presence of NADPH; format: functional
Liver microsome [13] = assay: Reversal of thioacetamide-induced CYP3A2 inactivation in rat liver microsomes at 0.2 to 5 mM in presence of NADPH; format: functional
Liver microsome [14] = assay: Reversal of thioacetamide-induced CYP2E1 inactivation in rat liver microsomes at 2 to 50 uM in presence of NADPH; format: functional
Liver microsome [15] = assay: Reversal of thioacetamide-induced CYP2E1 inactivation in rat liver microsomes at 0.2 to 5 mM in presence of NADPH; format: functional
Rattus norvegicus [16] = assay: Hepatoprotective activity in thioacetamide-induced Sprague-Dawley rat liver cirrhosis model assessed as downregulation of CYP3A2 protein level at 200 mg/kg administered intragastrically qd for 2 weeks by Western blotting analysis relative to control; format: functional; settings: route intragastric
Rattus norvegicus [17] = assay: Hepatoprotective activity in thioacetamide-induced Sprague-Dawley rat liver cirrhosis model assessed as downregulation of CYP2E1 protein level at 200 mg/kg administered intragastrically qd for 2 weeks by Western blotting analysis relative to control; format: functional; settings: route intragastric
Rattus norvegicus [18] = assay: Downregulation of CYP1A2 in Sprague-Dawley rat liver at 200 mg/kg administered intragastrically qd for 2 weeks by Western blotting analysis; format: ADME, organism-based; set-up: dose 200 mg/kg, route intragastric; settings: in vivo, po, 336 h
Rattus norvegicus [19] = assay: Upregulation of CYP2C6 in Sprague-Dawley rat liver at 200 mg/kg administered intragastrically qd for 2 weeks by Western blotting analysis; format: ADME, organism-based; set-up: dose 200 mg/kg, route intragastric; settings: in vivo, po, 336 h

Activity (Rattus norvegicus [6]): Active
Activity (Rattus norvegicus [7]): Active
Activity (Rattus norvegicus [18]): Active
Activity (Rattus norvegicus [19]): Active
SMILES: COC(=O)c1cc(OC)c2c(c1-c1c(C(=O)OC)cc(OC)c3c1OCO3)OCO2 [BIFENDATE]
Activity (Rattus norvegicus [1]): Active
Activity (Rattus norvegicus [2]): Active
Activity (Rattus norvegicus [3]): Active
Activity (Rattus norvegicus [4]): Active
Activity (Rattus norvegicus [5]): Active
Activity (Liver microsome [8]): inactive
Activity (Liver microsome [9]): inactive
Activity (Liver microsome [10]): inactive
Activity (Liver microsome [11]): inactive
Activity (Liver microsome [12]): inactive
Activity (Liver microsome [13]): inactive
Activity (Liver microsome [14]): inactive
Activity (Liver microsome [15]): inactive
fold change (FC) (Rattus norvegicus [16]): 1.56
fold change (FC) (Rattus norvegicus [17]): 2.26
